≈ marks a conversion by molar mass, not a printed value. Where “and” joins values, the source holds several entries; their conditions need not be identical. Equal values may be shown once. Read-outs that look alike come from different tables or passages of the source.
Experiments:
[1] = physchem; settings: pH 7.4, aqueous buffer, kinetic from dmso stock, PBS (pH 7.4)
Description: • Test concentration: 100 μM (1% of DMSO) • Test systems: PBS (pH 7.4) • Incubation condition: shaken (1000 rpm) for 1 h at room temperature • Sample size: Duplicates (n=2) • Bioanalytical method: LC-MS/MS

[2] = test system: C57BL/6 Diet Induced Obese (DIO) mice; experiment: Oral (P.O.) administration study in DIO mice: in vivo activity, body weights; parameters: species or system mouse; settings: for change in vivo at 2 mg/kg: Mus musculus, po, read-out: Body weight, %-Diff; for Individual Body Weight: individual male animals
Excerpt: The purpose of this study was to assess test articles in the Diet Induced Obese (DIO) mouse.
Male C57BL/6 Diet Induced Obese (DIO) mice were received from Taconic. Animals were acclimated to housing conditions for at least 1 week prior to vehicle acclimation dosing. Animals were acclimated to oral gavage dosing with vehicle once daily for Days 11 through 14 of the predose phase.
At initiation of dosing, animals were 21 to 22 weeks old, and their body weights ranged from 29.8 to 40.1 g.
Dose formulations were administered by oral gavage once daily for 10 days at a dose volume of 2 mL/kg. Doses were based on the most recently recorded scheduled body weight.
Body weights were recorded daily on Days 11 through 14 of the predose phase. Body weights were collected for all animals daily during the dosing phase prior to dosing.
Descriptive statistics (n, mean, standard error of the mean, standard deviation) were completed. Additionally, one-way analysis of variance followed by Dunnett's post-hoc test were performed on body weight (cumulative body weight change), glucose (glucose percent change), and food consumption (cumulative food consumption). Area under the curve (for body weight, cumulative body weight change, daily body weight change, and food consumption) was computed for treatment groups. An appropriate comparison test, such as one-way analysis of variance and Dunnett's, was performed on the group means for the area under the curve computations. Any additional statistical analysis and interpretation of the results were the responsibility of the sponsor.

[3] = test system: C57BL/6 Diet Induced Obese (DIO) mice; experiment: Oral (P.O.) administration study in DIO mice: animal fate (mortality) and clinical observations; settings: mouse, in vivo, 2 mg/kg
Description: Male C57BL/6 DIO mice were assigned to 12 groups, and doses of 2 mg/kg Celastrol (ERX1000-4), ERX1006, ERX1007, ERX1037, ERX1060, ERX1077, ERX1107, ERX1149, ERX1168, ERX1177, and Pristimerin were administered to Groups 2 through 12, respectively. Animals were dosed via oral gavage once daily for 10 days at a volume of 2 mL/kg. The vehicle control article was 1% methyl cellulose (400 cps) in citric acid and phosphate buffer.
Parameters assessed included mortality, clinical observations, body weights and food consumption and blood glucose evaluations.
All animals were anesthetized via carbon dioxide, sacrificed, and discarded without further evaluation on Day 11.

[4] = Solubility (μM) Mean, Table 6-B, test concentration 100 μM (1% of DMSO), shaken (1000 rpm) 1 h at room temperature, n = 2
[5] = 2 mg/kg oral gavage once daily, dosing phase Day 1
[6] = 2 mg/kg oral gavage once daily, dosing phase Day 1, N 5
[7] = 2 mg/kg oral gavage once daily, dosing phase Day 2
[8] = 2 mg/kg oral gavage once daily, dosing phase Day 2, N 5
[9] = 2 mg/kg oral gavage once daily, dosing phase Day 3
[10] = 2 mg/kg oral gavage once daily, dosing phase Day 3, N 5
[11] = 2 mg/kg oral gavage once daily, dosing phase Day 4
[12] = 2 mg/kg oral gavage once daily, dosing phase Day 4, N 5
[13] = 2 mg/kg oral gavage once daily, dosing phase Day 5
[14] = 2 mg/kg oral gavage once daily, dosing phase Day 5, N 5
[15] = 2 mg/kg oral gavage once daily, dosing phase Day 6
[16] = 2 mg/kg oral gavage once daily, dosing phase Day 6, N 5
[17] = Day 7, DSNG phase, 2 mg/kg, male, N=5
[18] = Day 8, DSNG phase, 2 mg/kg, male, N=5
[19] = Day 9, DSNG phase, 2 mg/kg, male, N=5
[20] = Day 10, DSNG phase, 2 mg/kg, male, N=5
[21] = Day 11, DSNG phase, 2 mg/kg, male, N=5
[22] = 168 h, Day 7, DSNG phase, 2 mg/kg, male, difference of group mean
[23] = 192 h, Day 8, DSNG phase, 2 mg/kg, male, difference of group mean
[24] = 216 h, Day 9, DSNG phase, 2 mg/kg, male, difference of group mean
[25] = 240 h, Day 10, DSNG phase, 2 mg/kg, male, difference of group mean
[26] = 264 h, Day 11, DSNG phase, 2 mg/kg, male, difference of group mean

SMILES: CC1=C(O)C(=O)C=C2C1=CC=C1[C@@]2(C)CC[C@@]2(C)[C@@H]3C[C@](C)(C(=O)O)CC[C@]3(C)CC[C@]12C [ERX1000]
- solubility [1, 4]: 3.89 µM (≈ 1.75 µg/mL)
- solubility ([1]; Solubility (μM), Table 6-D): 3.89 µM (≈ 1.75 µg/mL)
- Body weight %-Diff [2, 5]: 0%
- Body weight, Mean [2, 6]: 34.2 g
- Body weight %-Diff [2, 7]: −1%
- Body weight, Mean [2, 8]: 34.0 g
- Body weight %-Diff [2, 9]: −2%
- Body weight, Mean [2, 10]: 33.1 g
- Body weight %-Diff [2, 11]: −3%
- Body weight, Mean [2, 12]: 32.5 g
- Body weight %-Diff [2, 13]: −5%
- Body weight, Mean [2, 14]: 32.1 g
- Body weight %-Diff [2, 15]: −6%
- Body weight, Mean [2, 16]: 31.4 g
- Body weight, Mean [2, 17]: 30.6 g
- Body weight, Mean [2, 18]: 30.4 g
- Body weight, Mean [2, 19]: 30.3 g
- Body weight, Mean [2, 20]: 30.0 g
- Body weight, Mean [2, 21]: 29.1 g
- change in vivo at 2 mg/kg [2, 22]: -9%
- change in vivo at 2 mg/kg [2, 23]: -10%
- change in vivo at 2 mg/kg [2, 24]: -9%
- change in vivo at 2 mg/kg [2, 25]: -10%
- change in vivo at 2 mg/kg [2, 26]: -15%

SMILES: CC1=C(O)C(=O)C=C2C1=CC=C1[C@@]2(C)CC[C@@]2(C)[C@@H]3C[C@](C)(C(N)=O)CC[C@]3(C)CC[C@]12C [ERX1006]
- solubility [1, 4]: 1.15 µM (≈ 0.517 µg/mL)
- solubility ([1]; Solubility (μM), Table 6-D): 1.15 µM (≈ 0.515 µg/mL)
- Body weight %-Diff [2, 5]: −1%
- Body weight, Mean [2, 6]: 34.1 g
- Body weight %-Diff [2, 7]: −2%
- Body weight, Mean [2, 8]: 33.9 g
- Body weight %-Diff [2, 9]: −1%
- Body weight, Mean [2, 10]: 33.4 g
- Body weight %-Diff [2, 11]: −2%
- Body weight, Mean [2, 12]: 32.8 g
- Body weight %-Diff [2, 13]: −4%
- Body weight, Mean [2, 14]: 32.6 g
- Body weight %-Diff [2, 15]: −3%
- Body weight, Mean [2, 16]: 32.5 g
- Body weight, Mean [2, 17]: 32.0 g
- Body weight, Mean [2, 18]: 31.7 g
- Body weight, Mean [2, 19]: 31.4 g
- Body weight, Mean [2, 20]: 31.2 g
- Body weight, Mean [2, 21]: 30.9 g
- change in vivo at 2 mg/kg [2, 22]: -4%
- change in vivo at 2 mg/kg [2, 23]: -6%
- change in vivo at 2 mg/kg [2, 24]: -5%
- change in vivo at 2 mg/kg [2, 25]: -7%
- change in vivo at 2 mg/kg [2, 26]: -9%
- Individual Body Weight, PRED 11 ([2]; individual male DIO mouse of the 2 mg/kg group, pre-dose phase day 11 (baseline)): 37.6 g and 34.5 g and 32.2 g and 35.2 g and 36.7 g
- Individual Body Weight, PRED 12 ([2]; individual male DIO mouse of the 2 mg/kg group, pre-dose phase day 12 (baseline)): 38.0 g and 35.2 g and 32.7 g and 34.8 g and 36.8 g
- Individual Body Weight, PRED 13 ([2]; individual male DIO mouse of the 2 mg/kg group, pre-dose phase day 13 (baseline)): 37.4 g and 35.4 g and 32.5 g and 34.1 g and 36.3 g
- Individual Body Weight, PRED 14 ([2]; individual male DIO mouse of the 2 mg/kg group, pre-dose phase day 14 (baseline)): 38.5 g and 35.4 g and 32.7 g and 34.3 g and 36.9 g
- Individual Body Weight, DSNG 1 ([2]; individual male DIO mouse, 2 mg/kg, dosing phase day 1, 2 mg/kg): 35.7 g and 35.0 g and 32.7 g and 32.4 g and 34.9 g
- Individual Body Weight, DSNG 2 ([2]; individual male DIO mouse, 2 mg/kg, dosing phase day 2, 2 mg/kg): 35.0 g and 35.6 g and 31.8 g (2×) and 35.2 g

SMILES: CC1=C(O)C(=O)C=C2C1=CC=C1[C@@]2(C)CC[C@@]2(C)[C@@H]3C[C@](C)(C(=O)N(C)C)CC[C@]3(C)CC[C@]12C [ERX1008]
- solubility [1, 4]: 0.08 µM (≈ 0.0382 µg/mL)
- solubility ([1]; Solubility (μM), Table 6-D): 0.0841 µM (≈ 0.0402 µg/mL)
- cumulative body weight change ([2]; 2 mg/kg oral gavage once daily for 10 days, compared with controls): statistically significant decreases

SMILES: CC(=O)N(C)C[C@]1(C)CC[C@]2(C)CC[C@]3(C)C4=CC=C5C(=CC(=O)C(O)=C5C)[C@]4(C)CC[C@@]3(C)[C@@H]2C1 [ERX1149]
- Individual Body Weight ([2]; 2 mg/kg, Phase Day DSNG 1): 33.3 g and 35.8 g and 39.7 g and 31.5 g and 34.3 g
- Individual Body Weight ([2]; 2 mg/kg, Phase Day DSNG 2): 32.2 g and 34.8 g and 39.9 g and 31.7 g and 34.1 g
- Individual Body Weight ([2]; 2 mg/kg, Phase Day PRED 11 (pre-dose baseline)): 33.3 g and 38.3 g and 41.4 g and 33.7 g and 35.6 g
- Individual Body Weight ([2]; 2 mg/kg, Phase Day PRED 12 (pre-dose baseline)): 33.3 g and 37.3 g and 41.5 g and 33.4 g and 36.3 g
- Individual Body Weight ([2]; 2 mg/kg, Phase Day PRED 13 (pre-dose baseline)): 33.1 g and 36.8 g and 41.4 g and 32.3 g and 35.2 g
- Individual Body Weight ([2]; 2 mg/kg, Phase Day PRED 14 (pre-dose baseline)): 33.5 g and 36.1 g and 41.0 g and 32.5 g and 36.5 g
- Body weight, Mean ([2]; DIO mice, male, 2 mg/kg, phase DSNG, Day 7): 32.8 g
- Body weight, Mean ([2]; DIO mice, male, 2 mg/kg, phase DSNG, Day 8): 33.3 g
- Body weight, Mean ([2]; DIO mice, male, 2 mg/kg, phase DSNG, Day 9): 33.1 g
- Body weight, Mean ([2]; DIO mice, male, 2 mg/kg, phase DSNG, Day 10): 33.5 g
- Body weight, Mean ([2]; DIO mice, male, 2 mg/kg, phase DSNG, Day 11): 33.6 g
- Body weight, Mean ([2]; Day 1, DSNG phase, 2 mg/kg, male, N=5): 34.9 g
- Body weight, Mean ([2]; Day 2, DSNG phase, 2 mg/kg, male, N=5): 34.5 g
- Body weight, Mean ([2]; Day 3, DSNG phase, 2 mg/kg, male, N=5): 34.1 g
- Body weight, Mean ([2]; Day 4, DSNG phase, 2 mg/kg, male, N=5): 34.0 g
- Body weight, Mean ([2]; Day 5, DSNG phase, 2 mg/kg, male, N=5): 33.5 g
- Body weight, Mean ([2]; Day 6, DSNG phase, 2 mg/kg, male, N=5): 33.1 g
- change in vivo at 2 mg/kg ([2]; 24 h, Day 1, DSNG phase, 2 mg/kg, male, difference of group mean): 2%
- change in vivo at 2 mg/kg ([2]; 48 h, Day 2, DSNG phase, 2 mg/kg, male, difference of group mean): 0%
- change in vivo at 2 mg/kg ([2]; 72 h, Day 3, DSNG phase, 2 mg/kg, male, difference of group mean): 1%
- change in vivo at 2 mg/kg ([2]; 96 h, Day 4, DSNG phase, 2 mg/kg, male, difference of group mean): 2%
- change in vivo at 2 mg/kg ([2]; 120 h, Day 5, DSNG phase, 2 mg/kg, male, difference of group mean): -1%
- change in vivo at 2 mg/kg ([2]; 144 h, Day 6, DSNG phase, 2 mg/kg, male, difference of group mean): -1%
- change in vivo at 2 mg/kg ([2]; 168 h, DIO mice, male, 2 mg/kg, phase DSNG, Day 7, difference of group mean from vehicle group 1): -2%
- change in vivo at 2 mg/kg ([2]; 192 h, DIO mice, male, 2 mg/kg, phase DSNG, Day 8, difference of group mean from vehicle group 1): -1%
- change in vivo at 2 mg/kg ([2]; 216 h, DIO mice, male, 2 mg/kg, phase DSNG, Day 9, difference of group mean from vehicle group 1): 0%
- change in vivo at 2 mg/kg ([2]; 240 h, DIO mice, male, 2 mg/kg, phase DSNG, Day 10, difference of group mean from vehicle group 1): 0%
- change in vivo at 2 mg/kg ([2]; 264 h, DIO mice, male, 2 mg/kg, phase DSNG, Day 11, difference of group mean from vehicle group 1): -1%
- Individual Animal Fate: Fate Status [3]: Scheduled Sacrifice

— patent US10662218B2, “Analogs of celastrol” (ERX Pharmaceuticals, Inc., priority 2015, dated 2020)
